Reference: ChEMBL document CHEMBL1157448, “Antimycotic activity of 4-thioisosteres of flavonoids towards yeast and yeast-like microorganisms” (2008)

Key:
Format in all cases: functional
[1] = system: Papiliotrema laurentii; assay: Antimycotic activity against Cryptococcus laurentii DBVPG 4272 by agar diffusion disk bioassay
[2] = system: Papiliotrema laurentii; assay: Antimycotic activity against Cryptococcus laurentii DBVPG 6265 by agar diffusion disk bioassay
[3] = system: Candida albicans; assay: Antimycotic activity against Candida albicans DBVPG 6133 by agar diffusion disk bioassay
[4] = system: Saccharomyces cerevisiae; assay: Antimycotic activity against Saccharomyces cerevisiae DBVPG 6173 by agar diffusion disk bioassay
[5] = system: Saccharomyces cerevisiae; assay: Antimycotic activity against Saccharomyces cerevisiae DBVPG 6500 by agar diffusion disk bioassay
[6] = system: Candida albicans; assay: Antimycotic activity against Candida albicans DBVPG 6157 by agar diffusion disk bioassay
[7] = system: Kluyveromyces marxianus; assay: Antimycotic activity against Kluyveromyces marxianus DBVPG 6141 by agar diffusion disk bioassay
[8] = system: Papiliotrema laurentii; assay: Antimycotic activity against Cryptococcus laurentii DBVPG 3883 by agar diffusion disk bioassay
[9] = system: Clavispora lusitaniae; assay: Antimycotic activity against Clavispora lusitaniae DBVPG 6142 by agar diffusion disk bioassay
[10] = system: Prototheca wickerhamii; assay: Antimycotic activity against Prototheca wickerhamii DBVPG 8879 by agar diffusion disk bioassay
[11] = system: Cryptococcus neoformans; assay: Antimycotic activity against Filobasidiella neoformans DBVPG 6981 by agar diffusion disk bioassay
[12] = system: Cryptococcus neoformans; assay: Antimycotic activity against Filobasidiella neoformans DBVPG 6225 by agar diffusion disk bioassay
[13] = system: Cryptococcus neoformans; assay: Antimycotic activity against Filobasidiella neoformans DBVPG 6010 by agar diffusion disk bioassay
[14] = system: Cryptococcus neoformans; assay: Antimycotic activity against Filobasidiella neoformans DBVPG 6982 by agar diffusion disk bioassay
[15] = system: Cryptococcus neoformans; assay: Antimycotic activity against Filobasidiella neoformans DBVPG 3428 by agar diffusion disk bioassay
[16] = system: Yarrowia lipolytica; assay: Antimycotic activity against Yarrowia lipolytica DBVPG 6053 by agar diffusion disk bioassay
[17] = system: Pichia kudriavzevii; assay: Antimycotic activity against Issatchenkia orientalis DBVPG 6782 by agar diffusion disk bioassay
[18] = system: [Candida] zeylanoides; assay: Antimycotic activity against Candida zeylanoides DBVPG 6163 by agar diffusion disk bioassay
[19] = system: Meyerozyma guilliermondii; assay: Antimycotic activity against Pichia guilliermondii DBVPG 6140 by agar diffusion disk bioassay
[20] = system: Nakaseomyces glabratus; assay: Antimycotic activity against Candida glabrata DBVPG 7212 by agar diffusion disk bioassay
[21] = system: Candida tropicalis; assay: Antimycotic activity against Candida tropicalis DBVPG 3982 by agar diffusion disk bioassay

Row | SMILES | inhibition zone (IZ) [1] [mm] | inhibition zone (IZ) [2] [mm] | inhibition zone (IZ) [3] [mm] | inhibition zone (IZ) [4] [mm] | inhibition zone (IZ) [5] [mm] | inhibition zone (IZ) [6] [mm] | inhibition zone (IZ) [8] [mm] | inhibition zone (IZ) [9] [mm] | inhibition zone (IZ) [10] [mm] | inhibition zone (IZ) [11] [mm] | inhibition zone (IZ) [12] [mm] | inhibition zone (IZ) [13] [mm] | inhibition zone (IZ) [15] [mm] | inhibition zone (IZ) [16] [mm] | further results
1 | COc1ccc(C2CSc3c(O)cc(O)cc3O2)cc1 (stereo not given) | 17.5 | 13.3 | 12.4 | 15.1 | 14.7 | – | – | – | – | – | – | – | – | – | –
2 | COc1cc(OC)c2c(c1)OC(c1ccc(O)c(O)c1)CS2 (stereo not given) | 19.3 | 2.6 | – | 14.6 | 14.9 | 12.1 | 13.1 | 13.9 | 14.5 | – | – | – | – | – | inhibition zone (IZ) [7]: 14.9 mm
3 | COc1ccc(C2CSc3ccc(O)cc3O2)cc1 (stereo not given) | 26.4 | 16.8 | – | – | 20.6 | 14.1 | – | – | – | 14.2 | 14.9 | 18.1 | 14.6 | 15.6 | inhibition zone (IZ) [14]: 12.9 mm
4 | COc1ccc(C2CSc3cc(O)ccc3O2)cc1 (stereo not given) | 22 | – | – | – | – | – | – | – | – | – | – | 13.6 | – | – | –
5 | Oc1ccc(C2CSc3ccc(O)cc3O2)cc1 (stereo not given) | 28.5 | 17.8 | 16.2 | 15.6 | 19.2 | 18.3 | 22.6 | 12.4 | 17.8 | 15.6 | 17 | 15.5 | 17.4 | 16.5 | inhibition zone (IZ) [17]: 14 mm; inhibition zone (IZ) [18]: 16.4 mm; inhibition zone (IZ) [19]: 17.2 mm; inhibition zone (IZ) [20]: 13.1 mm; inhibition zone (IZ) [21]: 15.5 mm
6 | Oc1ccc(C2CSc3cc(O)ccc3O2)cc1 (stereo not given) | 16.4 | 16.9 | – | 15.2 | – | – | 13.8 | 12.9 | – | – | 11.2 | 15.5 | – | 14.3 | –
7 | COc1ccc2c(c1)OC(c1ccc(O)cc1)CS2 (stereo not given) | 30.2 | 20.6 | 17.5 | 24.1 | 18.3 | 16.5 | 18.2 | 15.3 | 20.7 | 25.1 | 18.4 | 35.1 | 20 | 15.8 | inhibition zone (IZ) [17]: 17.6 mm; inhibition zone (IZ) [18]: 19.4 mm; inhibition zone (IZ) [21]: 20.2 mm
